The target of this test is T1, Human Neuropeptide Y2 Receptor (Homo sapiens, UniProt P49146).
T1 construct: purchased CHEMICON HTS066M
T1 sequence (P49146 1-381): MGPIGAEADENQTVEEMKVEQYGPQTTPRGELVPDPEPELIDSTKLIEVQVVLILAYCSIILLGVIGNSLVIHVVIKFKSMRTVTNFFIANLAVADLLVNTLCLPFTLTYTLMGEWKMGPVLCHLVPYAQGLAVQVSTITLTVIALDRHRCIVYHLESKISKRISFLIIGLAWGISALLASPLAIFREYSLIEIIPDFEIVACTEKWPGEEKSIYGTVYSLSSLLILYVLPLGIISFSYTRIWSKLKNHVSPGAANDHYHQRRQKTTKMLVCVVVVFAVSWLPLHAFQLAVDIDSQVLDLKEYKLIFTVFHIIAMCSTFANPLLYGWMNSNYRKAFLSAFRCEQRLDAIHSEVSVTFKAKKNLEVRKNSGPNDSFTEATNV
The test is described as follows: Radioligand binding competition assay (RLB). To be noted: Table 3; human 125I-PYY (1-36) 0.02 nM, Y2 receptor membranes; read-out: Ki. The method in brief: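 IC50 values come from nonlinear regression of sigmoidal dose-response curves of filter-bound radioactivity. Peptides competed with radioligand at human Y2 receptor membranes (0.5 μg protein/well) for 2 h at room temperature in pH 7.4 HEPES buffer containing Mg2+, Ca2+ and 0.2% ovalbumin.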

Structures are written as SMILES. *1 amine or outer side, *2 acyl side, *3 side chain or, on linkers, in order; H or OH if unused. Where a SMILES comes first, the peptide text is derived from it. Side-chain parts run from the residue outwards. The star is where a group is joined. C18 diacid = O=C(O)CCCCCCCCCCCCCCCCC(=O)*; γGlu = O=C(O)[C@H](CCC(=O)[*:2])N[*:1]; Isovaleryl = CC(C)CC(=O)*; AEEA = NCCOCCOCC(=O)O

On to `CC(C)CC(=O)N[C@@H](C)C(=O)N1CCC[C@H]1C(=O)N[C@@H](C)C(=O)N[C@@H](CCCCNC(=O)COCCOCCNC(=O)COCCOCCNC(=O)CC[C@H](NC(=O)CCCCCCCCCCCCCCCCC(=O)O)C(=O)O)C(=O)N1CCC[C@H]1C(=O)N[C@@H](CCC(=O)O)C(=O)N[C@@H](C)C(=O)N[C@@H](CC(=O)O)C(=O)N[C@@H](C)C(=O)N[C@@H](CO)C(=O)N1CCC[C@H]1C(=O)N[C@@H](CCC(=O)O)C(=O)N[C@@H](CCC(=O)O)C(=O)N[C@@H](CC(C)C)C(=O)N[C@@H](CCC(N)=O)C(=O)N[C@@H](CCCNC(=N)N)C(=O)N[C@@H](Cc1ccc(O)cc1)C(=O)N[C@@H](Cc1ccc(O)cc1)C(=O)N[C@H](C(=O)N[C@@H](CCC(=O)O)C(=O)N[C@@H](CC(C)C)C(=O)N[C@@H](CCCNC(=N)N)C(=O)N[C@@H](Cc1c[nH]cn1)C(=O)N[C@@H](Cc1ccc(O)cc1)C(=O)N[C@@H](Cc1ccc(O)cc1)C(=O)N[C@@H](CC(N)=O)C(=O)N[C@@H](Cc1c[nH]c2ccccc12)C(=O)N[C@@H](CC(C)C)C(=O)N[C@H](C(=O)N[C@@H](CCCNC(=N)N)C(=O)N[C@@H](CCC(N)=O)C(=O)N[C@@H](CCCNC(=N)N)C(=O)N[C@@H](Cc1ccc(O)cc1)C(N)=O)[C@@H](C)O)C(C)C` [Compound 197, N{alpha-4}-(3-methylbutanoyl)-N{epsilon-7}-[2-(2-{2-[2-(2-{2-[(4S)-4-carboxy-4-(17-carboxyheptadecanamido)butanamido]ethoxy}ethoxy)acetamido]ethoxy}ethoxy)acetamido]-[4A,6A,7K,9E,10A,18Q,22V,23E,28Y,30W,31L]hPYY (4-36)], for which the Ki was 0.87 nM.

In the case of `CC(C)CC(=O)N[C@@H](C)C(=O)N1CCC[C@H]1C(=O)N[C@@H](CCC(=O)O)C(=O)N[C@@H](CCCCNC(=O)COCCOCCNC(=O)COCCOCCNC(=O)CC[C@H](NC(=O)CCCCCCCCCCCCCCCCC(=O)O)C(=O)O)C(=O)N1CCC[C@H]1C(=O)N[C@@H](CCC(=O)O)C(=O)N[C@@H](CCC(=O)O)C(=O)N[C@@H](CC(=O)O)C(=O)N[C@@H](C)C(=O)N[C@@H](CCC(=O)O)C(=O)N1CCC[C@H]1C(=O)N[C@@H](CCC(=O)O)C(=O)N[C@@H](CCC(=O)O)C(=O)N[C@H](C(=O)N[C@@H](CCC(N)=O)C(=O)N[C@@H](CCCNC(=N)N)C(=O)N[C@@H](Cc1ccc(O)cc1)C(=O)N[C@@H](Cc1ccc(O)cc1)C(=O)N[C@H](C(=O)N[C@@H](CO)C(=O)N[C@@H](CC(C)C)C(=O)N[C@@H](CCCNC(=N)N)C(=O)N[C@@H](Cc1c[nH]cn1)C(=O)N[C@@H](Cc1ccc(O)cc1)C(=O)N[C@@H](Cc1ccc(O)cc1)C(=O)N[C@@H](CC(N)=O)C(=O)N[C@@H](Cc1c[nH]c2ccccc12)C(=O)N[C@@H](CC(C)C)C(=O)N[C@H](C(=O)N[C@@H](CCCNC(=N)N)C(=O)N[C@@H](CCC(N)=O)C(=O)N[C@@H](CCCNC(=N)N)C(=O)N[C@@H](Cc1ccc(O)cc1)C(N)=O)[C@@H](C)O)C(C)C)[C@@H](C)O` [Compound 199, N{alpha-4}-(3-methylbutanoyl)-N{epsilon-7}-[2-(2-{2-[2-(2-{2-[(4S)-4-carboxy-4-(17-carboxyheptadecanamido)butanamido]ethoxy}ethoxy)acetamido]ethoxy}ethoxy)acetamido]-[4A,7K,9E,13E,17T,18Q,22V,28Y,30W,31L]hPYY (4-36)], the Ki was 5.69 nM.

On to `CC(C)CC(=O)N[C@@H](C)C(=O)N1CCC[C@H]1C(=O)N[C@@H](CCC(=O)O)C(=O)N[C@@H](CCCCNC(=O)COCCOCCNC(=O)COCCOCCNC(=O)CC[C@H](NC(=O)CCCCCCCCCCCCCCCCC(=O)O)C(=O)O)C(=O)N1CCC[C@H]1C(=O)N[C@@H](CCC(=O)O)C(=O)N[C@@H](CCC(=O)O)C(=O)N[C@@H](CCC(=O)O)C(=O)N[C@@H](C)C(=O)N[C@@H](CO)C(=O)N1CCC[C@H]1C(=O)N[C@@H](CCC(=O)O)C(=O)N[C@@H](CCC(=O)O)C(=O)N[C@H](C(=O)N[C@@H](CCC(N)=O)C(=O)N[C@@H](CCCNC(=N)N)C(=O)N[C@@H](Cc1ccc(O)cc1)C(=O)N[C@@H](Cc1ccc(O)cc1)C(=O)N[C@H](C(=O)N[C@@H](CO)C(=O)N[C@@H](CC(C)C)C(=O)N[C@@H](CCCNC(=N)N)C(=O)N[C@@H](Cc1c[nH]cn1)C(=O)N[C@@H](Cc1ccc(O)cc1)C(=O)N[C@@H](Cc1ccc(O)cc1)C(=O)N[C@@H](CC(N)=O)C(=O)N[C@@H](Cc1c[nH]c2ccccc12)C(=O)N[C@@H](CC(C)C)C(=O)N[C@H](C(=O)N[C@@H](CCCNC(=N)N)C(=O)N[C@@H](CCC(N)=O)C(=O)N[C@@H](CCCNC(=N)N)C(=O)N[C@@H](Cc1ccc(O)cc1)C(N)=O)[C@@H](C)O)C(C)C)C(C)C` [Compound 204, N{alpha-4}-(3-methylbutanoyl)-N{epsilon-7}-[2-(2-{2-[2-(2-{2-[(4S)-4-carboxy-4-(17-carboxyheptadecanamido)butanamido]ethoxy}ethoxy)acetamido]ethoxy}ethoxy)acetamido]-[4A,7K,9E,11E,17V,18Q,22V,28Y,30W,31L]hPYY (4-36)] (Isovaleryl-APEK([AEEA-AEEA-γGlu-C18 diacid])PEEEASPEEVQRYYVSLRHYYNWLTRQRY-NH2), for which the Ki was 3.35 nM.

As for `CC(C)CC(=O)N[C@@H](C)C(=O)N1CCC[C@H]1C(=O)N[C@@H](C)C(=O)N[C@@H](CCCCNC(=O)COCCOCCNC(=O)COCCOCCNC(=O)CC[C@H](NC(=O)CCCCCCCCCCCCCCCCC(=O)O)C(=O)O)C(=O)N1CCC[C@H]1C(=O)N[C@@H](CCC(=O)O)C(=O)N[C@@H](C)C(=O)N[C@@H](CC(=O)O)C(=O)N[C@@H](C)C(=O)N[C@@H](CCC(=O)O)C(=O)N1CCC[C@H]1C(=O)N[C@@H](CCC(=O)O)C(=O)N[C@@H](CCC(=O)O)C(=O)N[C@@H](CC(C)C)C(=O)N[C@@H](CCC(N)=O)C(=O)N[C@@H](CCCNC(=N)N)C(=O)N[C@@H](Cc1ccc(O)cc1)C(=O)N[C@@H](Cc1ccc(O)cc1)C(=O)N[C@H](C(=O)N[C@@H](CO)C(=O)N[C@@H](CC(C)C)C(=O)N[C@@H](CCCNC(=N)N)C(=O)N[C@@H](Cc1c[nH]cn1)C(=O)N[C@@H](Cc1ccc(O)cc1)C(=O)N[C@@H](Cc1ccc(O)cc1)C(=O)N[C@@H](CC(N)=O)C(=O)N[C@@H](Cc1c[nH]c2ccccc12)C(=O)N[C@@H](CC(C)C)C(=O)N[C@H](C(=O)N[C@@H](CCCNC(=N)N)C(=O)N[C@@H](CCC(N)=O)C(=O)N[C@@H](CCCNC(=N)N)C(=O)N[C@@H](Cc1ccc(O)cc1)C(N)=O)[C@@H](C)O)C(C)C` [Compound 207, N{alpha-4}-(3-methylbutanoyl)-N{epsilon-7}-[2-(2-{2-[2-(2-{2-[(4S)-4-carboxy-4-(17-carboxyheptadecanamido)butanamido]ethoxy}ethoxy)acetamido]ethoxy}ethoxy)acetamido]-[4A,6A,7K,9E,10A,13E,18Q,22V,28Y,30W,31L]hPYY (4-36)], the Ki was 1.07 nM.

The term Ki denotes the equilibrium dissociation constant of an inhibitor or competing ligand from its target.

Values taken from US12559529B2, “NPY2 receptor agonists” (Boehringer Ingelheim International GmbH, priority 2019, dated 2026).
